Measured values as given in patent publication US11806342B2, “Diiodohydroxyquinoline for the treatment of clostridium difficile infection” (Purdue Research Foundation, priority 2019, dated 2023).
In brackets after ≈: the same amount, converted by molar mass.

Tests used:
C. difficile ATCC 9689 = experiment: Checkerboard assay, DIHQ with metronidazole or vancomycin; format: cell-based, Clostridium difficile
Experimental: (§1) Interactions between diiodohydroxyquinoline and the anticlostridial drugs (metronidazole and vancomycin) against Clostridium difficile clinical isolates. […] The fractional inhibitory concentration index (ΣFIC) was calculated for each interaction. Interactions where the ΣFIC index was ≤0.5 were categorized as synergistic (SYN).

C. difficile I6 = experiment: as above; format: cell-based, Clostridium difficile
Experimental: as §1

C. difficile P30 = experiment: as above; format: cell-based, Clostridium difficile
Experimental: as §1

C. difficile P19 = experiment: as above; format: cell-based, Clostridium difficile
Experimental: as §1

C. difficile P11 = experiment: as above; format: cell-based, Clostridium difficile
Experimental: as §1

C. difficile ATCC 1801 = experiment: as above; format: cell-based, Clostridium difficile
Experimental: as §1

[1] = test system: C. difficile ATCC BAA-1870; experiment: Spore inhibition assay; format: cell-based, Clostridium difficile; conditions: C. difficile ATCC BAA-1870, ½×MIC or 1×MIC, five days
Experimental: (§2) The spore inhibition assay was performed as described in previous reports to investigate the effect of diiodohydroxyquinoline on C. difficile spore formation. Briefly, […], the bacterial suspension was split into microcentrifuge tubes and drugs were added (in triplicates) at concentrations equal to ½×MIC or 1×MIC. Tubes were then, incubated anaerobically for five days at 37° C. Thereafter, an aliquot from each tube was diluted and plated on BHIS agar plates supplemented with 0.1% taurocholic acid, to count the total bacterial counts (vegetative bacteria+spores). The remaining solution was centrifuged, and the pellet was suspended in PBS, stored overnight at 4° C., and subsequently shock-heated at 70° C. for 30 minutes to kill the vegetative cells. The resulting solution was serially diluted and plated to determine the heat-resistant spore counts. Spore inhibition assay was performed as described in previous reports to investigate the effect of DIHQ on C. difficile spore formation. Briefly, log-phase cultures of C. difficile strains (ATCC BAA-1870, ATCC 43255, and NR-49277) were diluted in BHIS to an initial density of ˜10^6 CFU/mL. Afterwards, the bacterial suspension was split in small tubes and the drugs were added (in triplicates) at concentrations equal to ½×MIC or 1×MIC. Tubes were then incubated anaerobically for 5 days at 37° C. After that, an aliquot from each tube was diluted and plated on BHIS agar plates supplemented with 0.1% taurocholic acid, to count the total bacterial count (vegetative bacteria+spores). The remaining solution was centrifuged, and the pellet was suspended in PBS and stored overnight at 4° C. then shock heated at 70° C. for 30 minutes to kill the vegetative cells. The resulting solution was serially diluted and plated to determine the heat-resistant spore counts.

C. difficile ATCC 43255 = experiment: Spore inhibition assay; format: cell-based, Clostridium difficile; conditions: C. difficile ATCC 43255, ½×MIC or 1×MIC, five days
Experimental: as §2

C. difficile NR-49277 = experiment: Spore inhibition assay; format: cell-based, Clostridium difficile; conditions: C. difficile NR-49277, ½×MIC or 1×MIC, five days
Experimental: as §2

[2] = test system: Bifidobacterium longum HM-847; experiment: MIC against normal gut microflora, broth microdilution; format: cell-based; conditions: Bifidobacterium longum, HM847
Experimental: (§3) In vitro antimicrobial evaluation of diiodohydroxyquinoline against normal microflora. The broth microdilution assay was utilized to determine the MICs of DIHQ and control antibiotics against commensal organisms that compose he human gut microflora, as described elsewhere. A bacterial solution equivalent to 0.5 McFarland standard was prepared and diluted in BHIS broth (for Bifidobacterium and Bacteroides) or in MRS broth (for Lactobacillus) to achieve a bacterial concentration of about 5×10^5 CFU/mL. Then, drugs were added and serially diluted along the plates.

Bacteroides dorei HM-717 = experiment: as above; format: cell-based; conditions: Phocaeicola dorei, HM717
Experimental: as §3

[3] = test system: Bifidobacterium breve HM-411; experiment: as above; format: cell-based; conditions: Bifidobacterium breve, HM411
Experimental: as §3

Bacteroides dorei HM-718 = experiment: as above; format: cell-based; conditions: Phocaeicola dorei, HM718
Experimental: as §3

[4] = test system: Bifidobacterium breve HM-1120; experiment: as above; format: cell-based; conditions: Bifidobacterium breve, HM1120
Experimental: as §3

[5] = test system: Lactobacillus crispatus HM-371; experiment: as above; format: cell-based; conditions: Lactobacillus crispatus, HM371
Experimental: as §3

[6] = test system: Bacteroides fragilis HM-711; experiment: as above; format: cell-based; conditions: Bacteroides fragilis, HM711
Experimental: as §3

[7] = test system: Bacteroides fragilis HM-709; experiment: as above; format: cell-based; conditions: Bacteroides fragilis, HM709
Experimental: as §3

[8] = test system: Bifidobacterium angulatum HM-1189; experiment: as above; format: cell-based; conditions: Bifidobacterium angulatum, HM1189
Experimental: as §3

[9] = test system: 38 tested C. difficile strains; experiment: MIC and MBC over the panel of clinical isolates (MIC50, MIC90, range); format: cell-based, Clostridium difficile; conditions: Clostridioides difficile
Experimental: MIC50 and MIC90 are the minimum concentration of each agent that inhibited growth of 50% and 90% of the tested isolates, respectively. The minimum bactericidal concentration (MBC) of these drugs was tested by plating 5 μL from wells with no growth onto BHIS agar plates. The MBC was categorized as the lowest concentration that reduced bacterial growth by 99.9% MIC50 and MIC90 are the minimum concentration of each agent that inhibited the growth of 50% and 90% of the tested isolates, respectively. The minimum bactericidal concentration (MBC) of these drugs was tested by plating 5 μL from wells with no growth onto BHIS agar plates. The MBC was categorized as the lowest concentration that reduced bacterial growth by 99.9% [29-31].

`CN[C@H](CC(C)C)C(=O)N[C@H]1C(=O)N[C@@H](CC(N)=O)C(=O)N[C@H]2C(=O)N[C@H]3C(=O)N[C@H](C(=O)N[C@H](C(=O)O)c4cc(O)cc(O)c4-c4cc3ccc4O)[C@H](O)c3ccc(c(Cl)c3)Oc3cc2cc(c3O[C@@H]2O[C@H](CO)[C@@H](O)[C@H](O)[C@H]2O[C@H]2C[C@](C)(N)[C@H](O)[C@H](C)O2)Oc2ccc(cc2Cl)[C@H]1O` [Vancomycin, vancomycin] was tested, and the “MIC of vancomycin combined with DIHQ” value (C. difficile ATCC 9689; C. difficile ATCC 9689) was 0.125 µg/mL, the MIC (C. difficile ATCC 9689; Clostridioides difficile, ATCC9689, read-out: MIC alone) was 1 µg/mL and the “MIC of vancomycin combined with DIHQ” value (C. difficile I6; C. difficile I6) was 0.06 µg/mL. For the same compound, the MIC (C. difficile I6; Clostridioides difficile, I6, read-out: MIC alone) was 0.5 µg/mL, the “MIC of vancomycin combined with DIHQ” value (C. difficile P30; C. difficile P30) was 0.125 µg/mL and the MIC (C. difficile P30; Clostridioides difficile, P30, read-out: MIC alone) was 1 µg/mL. The “MIC of vancomycin combined with DIHQ” value (C. difficile P19; C. difficile P19) was 0.125 µg/mL, the MIC (C. difficile P19; Clostridioides difficile, P19, read-out: MIC alone) was 1 µg/mL and the “MIC of vancomycin combined with DIHQ” value (C. difficile P11; C. difficile P11) was 0.125 µg/mL. For the same compound, the MIC (C. difficile P11; Clostridioides difficile, P11, read-out: MIC alone) was 1 µg/mL, the “MIC of vancomycin combined with DIHQ” value (C. difficile ATCC 1801; C. difficile ATCC 1801) was 0.06 µg/mL and the MIC (C. difficile ATCC 1801; Clostridioides difficile, ATCC1801, read-out: MIC alone) was 0.5 µg/mL. For the same compound, the “reduction in spore count (in words)” value [1] was “almost no reduction”, the “reduction in spore count (in words)” value (C. difficile ATCC 43255) was “almost no reduction” and the “reduction in spore count (in words)” value (C. difficile NR-49277) was “almost no reduction”. For the same compound, the MIC [2] was ≤ 1 µg/mL, the MIC (Bacteroides dorei HM-717) was 128 µg/mL (≈ 88.3 µM) and the MIC [3] was ≤ 1 µg/mL. The MIC (Bacteroides dorei HM-718) was 128 µg/mL (≈ 88.3 µM), the MIC [4] was ≤ 1 µg/mL and the MIC [5] was 4 µg/mL (≈ 2.76 µM). The MIC [6] was 128 µg/mL (≈ 88.3 µM), the MIC [7] was 64 µg/mL (≈ 44.2 µM) and the MIC [8] was ≤ 1 µg/mL. For the same compound, the MIC50 [9] was 0.5 µg/mL (≈ 0.345 µM) and the MIC90 [9] was 1 µg/mL (≈ 0.69 µM).
